Data: article PMC7617285, “Dehydrogenase versus oxidase function: the interplay between substrate binding and flavin microenvironment” (ACS catalysis, 2025)
Each block holds one compound with its values, some of them ahead of it.

Columns and labels:
[1] = target: T1, VAD (vanillyl-alcohol dehydrogenase from Marinicaulis flavus) (Hyphococcus luteus, UniProt A0A2S7K3M2, P151L); experiment: X-ray structure of soaked crystal; type: binding; details: 1 mM eugenol soak, 2 min; active site, flavin si side
T1 construct: gene CW354_13745; SUMO tag cleaved for crystals; covalent FAD on H387; dimer
T1 sequence (A0A2S7K3M2 entry or part of it P151L): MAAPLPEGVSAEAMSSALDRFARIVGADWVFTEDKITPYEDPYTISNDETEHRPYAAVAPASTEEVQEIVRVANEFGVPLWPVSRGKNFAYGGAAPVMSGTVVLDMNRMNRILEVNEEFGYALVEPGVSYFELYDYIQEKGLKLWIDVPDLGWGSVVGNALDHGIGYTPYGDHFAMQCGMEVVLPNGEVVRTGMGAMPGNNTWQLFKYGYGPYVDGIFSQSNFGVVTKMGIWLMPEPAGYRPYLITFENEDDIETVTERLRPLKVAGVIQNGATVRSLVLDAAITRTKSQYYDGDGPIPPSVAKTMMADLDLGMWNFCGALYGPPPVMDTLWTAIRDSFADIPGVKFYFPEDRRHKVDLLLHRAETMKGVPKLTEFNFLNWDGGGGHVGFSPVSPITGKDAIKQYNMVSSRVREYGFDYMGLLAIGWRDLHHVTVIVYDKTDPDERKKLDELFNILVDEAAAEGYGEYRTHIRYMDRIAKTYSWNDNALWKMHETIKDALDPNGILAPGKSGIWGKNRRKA

[2] = target: T2, VAD (vanillyl-alcohol dehydrogenase from Marinicaulis flavus) (Hyphococcus luteus, UniProt A0A2S7K3M2); experiment: X-ray structure; type: binding; details: covalent (H387)
T2 construct: gene CW354_13745; SUMO tag cleaved for crystals; covalent FAD on H387; dimer
T2 sequence (A0A2S7K3M2 1-521): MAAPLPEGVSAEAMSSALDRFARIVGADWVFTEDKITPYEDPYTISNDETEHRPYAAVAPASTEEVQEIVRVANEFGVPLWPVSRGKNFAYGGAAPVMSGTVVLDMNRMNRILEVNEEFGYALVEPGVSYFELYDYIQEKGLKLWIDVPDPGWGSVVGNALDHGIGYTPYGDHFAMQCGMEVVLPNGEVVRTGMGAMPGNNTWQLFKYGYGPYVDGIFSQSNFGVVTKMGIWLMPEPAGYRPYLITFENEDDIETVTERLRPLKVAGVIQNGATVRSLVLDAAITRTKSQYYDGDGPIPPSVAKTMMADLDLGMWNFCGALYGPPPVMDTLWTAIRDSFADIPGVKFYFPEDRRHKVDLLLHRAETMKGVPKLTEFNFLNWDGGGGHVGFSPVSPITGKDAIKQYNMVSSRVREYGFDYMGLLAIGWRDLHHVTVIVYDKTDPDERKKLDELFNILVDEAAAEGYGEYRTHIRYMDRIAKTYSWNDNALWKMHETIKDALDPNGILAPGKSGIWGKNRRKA

[3] = target: T3, nsVAO (vanillyl-alcohol oxidase from Novosphingobium sp.) (Novosphingobium sp., UniProt A0A3N9RU39); experiment: X-ray structure; type: binding; details: non-covalently bound FAD
T3 construct: gene EH199_11270; SUMO tag cleaved for crystals; non-covalent FAD
T3 sequence (A0A3N9RU39 1-543): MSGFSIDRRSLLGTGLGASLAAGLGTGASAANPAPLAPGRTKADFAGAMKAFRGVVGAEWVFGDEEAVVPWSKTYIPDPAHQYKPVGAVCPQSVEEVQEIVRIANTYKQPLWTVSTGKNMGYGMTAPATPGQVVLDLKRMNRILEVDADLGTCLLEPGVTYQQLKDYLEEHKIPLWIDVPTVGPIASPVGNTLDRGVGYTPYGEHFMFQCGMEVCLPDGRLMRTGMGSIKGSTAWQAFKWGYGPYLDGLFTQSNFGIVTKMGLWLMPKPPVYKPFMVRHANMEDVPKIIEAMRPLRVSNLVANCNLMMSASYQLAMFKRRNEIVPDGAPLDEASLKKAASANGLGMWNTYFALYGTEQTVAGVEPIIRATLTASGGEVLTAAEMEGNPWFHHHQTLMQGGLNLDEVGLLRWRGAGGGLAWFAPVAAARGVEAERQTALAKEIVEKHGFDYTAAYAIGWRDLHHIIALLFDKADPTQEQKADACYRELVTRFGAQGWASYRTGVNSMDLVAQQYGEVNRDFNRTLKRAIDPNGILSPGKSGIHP

[4] = target: T1, VAD (vanillyl-alcohol dehydrogenase from Marinicaulis flavus); experiment: anaerobic stopped-flow reductive half-reaction; type: biochemical; details: 25 °C, 50 mM potassium phosphate pH 7.5, 150 mM NaCl, oxidized enzyme
Description: (§1) anaerobic stopped-flow reductive half-reaction on VAD (vanillyl-alcohol dehydrogenase from Marinicaulis flavus)

[5] = target: T2, VAD (vanillyl-alcohol dehydrogenase from Marinicaulis flavus); experiment: anaerobic stopped-flow reductive half-reaction; type: biochemical; details: 25 °C, 50 mM potassium phosphate pH 7.5, 150 mM NaCl, oxidized enzyme
Description: as §1

[6] = target: T3, nsVAO (vanillyl-alcohol oxidase from Novosphingobium sp.); experiment: X-ray structure of soaked crystal; type: binding; details: […] vanillyl alcohol soak, […] min; active site

Structure (SMILES): C=CCc1ccc(O)c(OC)c1 [Eugenol]
X-ray structure of soaked crystal [1]: P151L VAD-eugenol, wild type nsVAO-vanillyl alcohol and T181D nsVAO-vanillin complexes were prepared by soaking crystals

Structure (SMILES): Cc1cc2nc3c(=O)[nH]c(=O)nc-3n(C[C@H](O)[C@H](O)[C@H](O)COP(=O)(O)OP(=O)(O)OC[C@H]3O[C@@H](n4cnc5c(N)ncnc54)[C@H](O)[C@@H]3O)c2cc1C [FAD]
X-ray structure [2]: FAD carbons are in yellow, wild-type carbons in orange | X-ray structure [3]: Its crystal structure confirms that FAD is non-covalently bound

Kd [4]: 1060 ± 80 µM | Kd [5]: 24.2 ± 3.3 µM
Structure (SMILES): COc1cc(CO)ccc1O [Vanillyl alcohol]
X-ray structure of soaked crystal [6]: Vanillyl alcohol bound to wild type nsVAO is shown with blue carbons.
